The conditions of data set [1]: cited from earlier work.
The conditions of data set [2]: according to Sigma-Aldrich; cited from earlier work.
The nature of data set [3]: Reported physicochemical properties of valproic acid. To be noted: based on reported absorption and solubility values.
Setting [4] is: 70 kg person, Gugler and Unruh 1980.
The mark [5] stands for this setting: systemic disposition PK of the reported 250 mg single dose study.

Converted amounts (≈) assume the structure as drawn. Like-named read-outs stand apart in the source and are kept apart here.

In the case of `CCCC(CCC)C(=O)O` [VPA, Valproic acid], in data set [1] (setting [4]), the CL is reported as 0.61 L/h; the F was 100%; the Vd (as a rule, a proportionality between amount in the body and measured concentration, not a real space) is 10.6 L. In data set [1] (based on data of Dutta and Reed 2007), the “rate of absorption of released drug, first order (kabs)” value was 61 h⁻¹. Besides, the “time up to which intestinal absorption was measured by deconvolution” value in data set [1] (oral, Dutta and Zhang, 2004) is recorded as “up to 22 hr”. In data set [1] (oral, immediate release, modified release and extended release formulations), the “bioavailability (F)” value is listed as approximately 100%. In data set [1] (setting [5]), the CL is recorded as 0.52 L/h and the V is listed as 7.1 L. Further, the solubility in water in data set [2] is 50 mg/mL (≈ 347 mM). Moreover, the “biopharmaceutical classification system (BCS) class” value in data set [3] is “class I”.

The record behind these values is patent publication US12059502B2, “Composition and method for pretreating cancer” (Valcuria AB, priority 2016, dated 2024).
